PMC8120183, “Cardamonin inhibits the progression of oesophageal cancer by inhibiting the PI3K/AKT signalling pathway” (Journal of Cancer, 2021)

What was measured:
[1] = HE staining of important organs; format: in vivo, nude mice; settings: treatment group vs control group
Experimental: (§1) A suspension of EC9706 cells (2×10^7 cells/ml) was injected into the middle of and posterior to the armpit of 4- to 6-week-old male nude mice. One week after inoculation, a soybean-sized subcutaneous mass appeared in the armpits of the mice. Then, different doses of CAR (5, 15, or 25 mg/kg) or sodium carboxymethyl cellulose (CMC), which served as a control, were administered by gavage once every three days. The body weights of the mice and tumour size were measured at the same time. Mice were euthanized 26 days after drug administration. Immunohistochemistry (IHC) was used to stain the tumours, and stomach tissue was stained with haematoxylin-eosin (HE).
Tumour tissues were fixed with 4% paraformaldehyde and embedded in paraffin. Paraffin-embedded tissue blocks were cut into slices with a thickness of […]. Tumour sections were immunohistochemically stained with PCNA (1:100), Bcl-2 (1:100), vimentin (1:100), phosphorylated Akt (1:100), and phosphorylated PI3K (1:100) antibodies according to the steps of the immunohistochemistry kit. For HE staining, tissues were sectioned after deparaffinization, stained with haematoxylin and eosin, and mounted on slides with neutral gum.

[2] = system: oesophageal cancer cell lines EC9706 and TE10; assay: Crystal violet staining, cell proliferation; format: cell-based, human; settings: 4, 6, 8, 10 µM; 24 h and 48 h; similar in MTT assay
Experimental: Oesophageal cancer cells at a density of 3×10^4 cells/well were seeded in 24-well plates. Then, the cells were treated with different concentrations of prepared CAR or DMSO, and the NC group was set up. After incubation in an incubator for 24 h and 48 h, crystal violet staining solution was added to each well. After imaging under a scanner, the cells were fully dissolved in 20% acetic acid solution. To calculate cell viability, the optical density (OD) value of each well was measured at 590 nm using an enzyme-linked immunosorbent assay (ELISA) spectrophotometer.

[3] = system: EC9706 xenograft; assay: EC9706 tumour xenograft model, tumour growth; format: in vivo, nude mice; settings: 5, 15 or 25 mg/kg by gavage once every three days, compared with control group
Experimental: as §1

[4] = system: TE10 cells; assay: MTT assay, cell viability and IC50; format: cell-based, human
Experimental: (§2) EC9706 and TE10 oesophageal cancer cells in the logarithmic growth phase were harvested and inoculated into 96-well plates at a density of 3000 cells/well. The cells were cultured in an incubator for 12 h and then treated with different concentrations of CAR and DMSO. The NC group was also set up. After incubation for 24 h or 48 h, 10 µL of MTT solution (5 mg/ml) was added to each well. The supernatant was aspirated, and 100 µL of DMSO was added to each well. The absorbance at a wavelength of 490 nm was measured using a microplate reader.

[5] = system: EC9706 cells; assay: MTT assay, cell viability and IC50; format: cell-based, human
Experimental: as §2

[6] = system: EC9706 and TE10 cells; assay: Transwell Matrigel invasion assay; format: cell-based, human; settings: 48 h
Experimental: A total of 100 μL of Matrigel was placed in the upper chamber of a Transwell system and incubated at 37 °C for 2 h to form a white membrane visible to the naked eye. Cells were resuspended in serum-free medium and adjusted to a concentration of 3×10^4 cells/well. Medium containing 10% FBS was added into the lower chamber, and CAR was added based on a concentration gradient. Next, the cells were incubated for 48 h and then stained with crystal violet for 10 min. Then, an inverted microscope was used to observe the cells; five fields were randomly selected to observe and count the cells. To assess cell migration, all the above steps were repeated, but Matrigel was not added to the upper chamber.

[7] = Blood routine related indexes; format: in vivo, nude mice; settings: Mean±SD (n=3)
Experimental: as §1

[8] = 5 mg/kg by gavage once every three days
[9] = 15 mg/kg by gavage once every three days
[10] = 25 mg/kg by gavage once every three days

COc1cc(O)cc(O)c1C(=O)/C=C/c1ccccc1 [CAR, Cardamonin]
HE staining of important organs [1]: no difference in HE staining was observed between the treatment group and the control group
cell proliferation [2]: inhibited oesophageal cancer cell proliferation in time- and concentration-dependent manners
tumour growth [3]: significantly inhibited tumour growth
IC50 ([4]; 24 h): 12.5 µM
IC50 ([4]; 48 h): 8.4 µM
IC50 ([5]; 24 h): 12.2 µM
IC50 ([5]; 48 h): 8.67 µM
invasive ability [6]: significantly inhibited the invasive ability of oesophageal cancer cells
Gran [7, 8]: 25.43±2.58%
HCT [7, 8]: 39.87±7.80%
HGB [7, 8]: 131.33 ± 6.51 g/L
LYM [7, 8]: 70.80±4.07%
MCH [7, 8]: 20.07 ± 0.93 pg
MCHC [7, 8]: 348.00 ± 12.77 g/L
MCV [7, 8]: 57.63 ± 1.50 fL
Mon [7, 8]: 3.77±1.95%
PLT [7, 8]: 1009±44.24 ×10^9/L
RBC [7, 8]: 6.91±1.49 ×10^12/L
WBC [7, 8]: 3.90±0.17 ×10^9/L
Gran [7, 9]: 24.53±2.28%
HCT [7, 9]: 35.77±1.86%
HGB [7, 9]: 137.00 ± 19.00 g/L
LYM [7, 9]: 72.30±3.15%
MCH [7, 9]: 19.40 ± 2.07 pg
MCHC [7, 9]: 332.33 ± 19.09 g/L
MCV [7, 9]: 58.33 ± 2.78 fL
Mon [7, 9]: 3.17±1.01%
PLT [7, 9]: 1074.00±42.80 ×10^9/L
RBC [7, 9]: 6.13±0.08 ×10^12/L
WBC [7, 9]: 3.82±0.07 ×10^9/L
Gran [7, 10]: 23.53±2.25%
HCT [7, 10]: 34.30±2.17%
HGB [7, 10]: 142.33 ± 5.69 g/L
LYM [7, 10]: 74.13±1.53%
MCH [7, 10]: 17.93 ± 0.49 pg
MCHC [7, 10]: 336.00 ± 7.00 g/L
MCV [7, 10]: 56.03 ± 1.56 fL
Mon [7, 10]: 3.20±0.87%
PLT [7, 10]: 1077.00±42.58 ×10^9/L
RBC [7, 10]: 6.42±0.19 ×10^12/L
WBC [7, 10]: 3.80±0.14 ×10^9/L
